Source: US8158589B2, “Peptides with the capacity to bind to transforming growth factor β1 (TGF-β1)” (Proyecto Biomedicine Cima, S.L., priority 2003, dated 2012)
Ends that are not written are not given here.

Assays:
[1] = biological target: T1, TGF-β1 (Homo sapiens, UniProt P01137); assay: α-SMA expression induced by TGF-β1 in IMR-90 lung fibroblasts, western blot; type: cell-based; parameters: purchased R&D Systems; host or cells: added to IMR-90 human lung fibroblasts; details: IMR-90 cells, 5 ng/ml TGF-β1, peptide 100 μg/ml, 24 hours
Procedure: IMR-90 human lung fibroblasts (ATCC, Manassas, Va.) were cultured in EMEM medium (Cambrex, Belgium) supplemented with 10% fetal bovine serum (FBS), 1 mM sodium pyruvate, 0.1 mM nonessential amino acids, 100 U/ml penicillin and 100 μg/ml streptomycin (Gibco BRL, UK). For experiments, 6×10^4 cells/well were cultured in 6-well plates in 2 ml of medium and when they were 80% confluent, medium was replaced with serum-free EMEM for 48 h to induce quiescence. TGF-β1 (5 ng/ml) and P17 (100 μg/ml) were co-incubated for 90 min at 37° C. to allow binding of both molecules before addition to cell cultures. Quiescent cells were then stimulated with TGF-β1 and/or P17 for up to 6 or 24 h. After these incubation periods, fibroblasts were harvested for gene and protein analysis, respectively.
To assess alpha-Smooth Muscle Actin (αSMA) expression, IMR-90 fibroblasts were lysed with RIPA buffer containing 10 U/ml leupeptin, 10 U/ml pepstatin, 1 mM phenylmethanesulfonylfluoride (PMSF), 1 mM Na3VO4 and 1 mM NaF. […] Membranes were analyzed for expression of αSMA protein using anti-αSMA monoclonal antibody (Sigma-Aldrich) at a dilution of 1:2000 and horseradish peroxidase-labeled anti-mouse IgG (Sigma-Aldrich). Expression of actin was detected using anti-actin monoclonal antibody (Sigma-Aldrich) (1:2000 dilution) and horseradish peroxidase-labeled anti-rabbit IgG (Sigma-Aldrich). […]
Target sequence in this assay (P01137 279-390 limits assumed): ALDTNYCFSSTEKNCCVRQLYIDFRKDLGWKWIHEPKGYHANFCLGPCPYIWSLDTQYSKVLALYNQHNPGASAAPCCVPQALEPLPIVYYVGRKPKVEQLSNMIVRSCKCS

[2] = biological target: T1, TGF-β1; assay: Western Blot of p-Smad2, Smad2/3 and Smad7 in primary culture of rabbit corneal fibroblasts; type: cell-based; parameters: host or cells: added to a primary culture of rabbit corneal fibroblasts; details: primary culture, TGF-β1 and peptide
Procedure: Therefore, Western Blot and immunofluorescence studies were conducted to determine, from cells extracted from the in vivo studies, the signaling pathway used by the peptides administered topically. It should be emphasized that said studies were conducted on fibroblasts from rabbit cornea and not from rat cornea. This decision was made due to the difficulty entailed in isolating fibroblasts from rodent eyes.
Since the scientific literature repeatedly describes the TGF-β1 signaling pathways, the decision was made to go into depth in such pathways by means of the techniques described in the methodology section. Said pathways involve the study of the Smad protein family, specifically the study of the isoforms Smad2, 2/3 and 7.
To that end, protein extracts obtained from the primary culture of rabbit fibroblasts were treated with TGF-β1 at concentrations of 0, 3 and 5 ng/ml and, 50 and 200 μg/ml of peptide p17 and p144.
Target sequence in this assay (P01137 279-390 limits assumed, species assumed): as the sequence (P01137 279-390 limits assumed) above

[3] = biological target: T2, TGF-β1 (Rattus norvegicus, UniProt P17246); assay: Corneal fibrosis and haze after 1 N NaOH damage, topical eye drops, photographs analysed with ImageJ; type: in vivo, Long-Evans rats; details: fifth formulation eye drops, treated right eye vs control left eye
T2 construct: from tissue; host or cells: cornea of Long-Evans rats
Text: Male Long-Evans rats aged 10 weeks were used, divided into 5 groups: • Group 1: 12 rats, 6 treated with dexamethasone and 6 treated with mitomycin C • Group 2: 12 rats, 6 treated with p17 of the first formulation (see section 6.1.2.b) and 6 treated with p144 of the first formulation (see section 6.1.2.b) • Group 3: 12 rats, 6 treated with p17 of the second formulation (see section 6.1.2.b) and 6 treated with p144 of the second formulation (see section 6.1.2.b) • Group 4: 12 rats, 6 treated with p17 of the third formulation (see section 6.1.2.b) and 6 treated with p144 of the third formulation (see section 6.1.2.b) • Group 5: 12 rats, 6 treated with p17 of the fourth formulation (see section 6.1.2.b) and 6 treated with p144 of the fourth formulation (see section 6.1.2.b) • Group 6: 12 rats, 6 treated with p17 of the fifth formulation (see section 6.1.2.b) and 6 treated with p144 of the fifth formulation (see section 6.1.2.b)
To perform the damage in the cornea, the animals were anesthetized with isoflurane and a 5 mm Whatman paper disc impregnated in 1 N NaOH for 30 seconds was applied to them in the central part of the eye. After the damage, they were washed with abundant physiological saline serum and an antibiotic ointment was applied to them to prevent possible infections in the affected area.
After conducting several in vivo studies with the previously described groups of animals, it could be concluded that the chemical damage occurring after the application of NaOH for 30 seconds caused an excessive lesion for the study which was to be conducted, therefore it was decided to conduct new experiments reducing the time to 15 seconds.
It was randomly established that the left eye of each animal would act as a control and that the right eye would be the treated eye, such that the same animals acts as a control in addition to being treated. It must be pointed out that all the animals received antibiotic treatment in both eyes daily only during the first week of the study for the purposes of avoiding microbial keratitis.
Starting from 0.15% sodium hyaluronate (Hyabak 10 mL, Thea) without preservatives: • p144: 20 mg were dissolved in 5 ml of eye drops, 40 μl of saturated concentrated NaOH were incorporated, stirring and adding in portions of 5 μl. It was sonicated until solubilization. To adjust the pH, 500 μl of 1M Hepes were added, such that the pH changed from 10.5 to 7 • p144 control: 40 μl of saturated NaOH and 500 μl of 1 M HEPES (final concentration of HEPES 50 mM) • p17: 20 mg were dissolved in 5 ml of the eye drops, it was sonicated until complete solubilization and it was incorporated to the vial with a 10 ml syringe and a blue needle to perforate the filter of the contained (final concentration 2 mg/ml) • p17 control: non-manipulated eye drops • Note: The formulations were maintained at 4° C. throughout the study.
The administration of the treatment was initiated twenty-four hours after the damage. After that time a follow-up of the damage was performed, which consisted of taking photographs at days 0, 7, 14, 21, 28 and 35. To take the photographs the animals were anesthetized with isoflurane. Photographs were taken of both the control eye (left) and of the treated eye (right) with and without fluorescein. The photographs with fluorescein allowed to observe the evolution of the epithelial closure of the generated lesion, whereas the photographs without fluorescein show the evolution of the haze of the lesioned area. […]

T2 sequence (P17246 279-390 limits assumed): as the sequence (P01137 279-390 limits assumed) above, with A75S counted along it

KRIWFIPRSSWYERA [SEQ ID NO: 17, KRIWFIPRSSWYERA]
α-SMA expression induced by TGF-β1 [1]: inhibited
expression of Smad 2/3 [2]: not affected
expression of Smad 7 [2]: not modified
corneal haze [3]: clear decrease
epithelial closure (fluorescein) [3]: clear decrease
